Values of other authors in patent US6811791B2, “Method and concentrated composition for insect and animal control” (priority 2001, dated 2004).

Conditions: classified by the EPA

In the case of `CNC(=O)CSP(=S)(OC)OC` [Dimethoate, dimethoate], the EPA carcinogen classification is given as “group 3 carcinogen”.
